{"source": "patent US20260035365A1", "about": "“1H-PYRROLO[3,2-B]PYRIDINE DERIVATIVES AS IRREVERSIBLE INHIBITORS OF MUTANT EGFR FOR THE TREATMENT OF CANCER” (Bayer Aktiengesellschaft, priority 2022, published 2026)", "key": {"[1]": {"target": "mutEGFR (D770_N771insSVD) (Homo sapiens, UniProt P00533, INS767SVD)", "sequence (P00533 with tags, fused parts or gaps INS767SVD limits assumed)": "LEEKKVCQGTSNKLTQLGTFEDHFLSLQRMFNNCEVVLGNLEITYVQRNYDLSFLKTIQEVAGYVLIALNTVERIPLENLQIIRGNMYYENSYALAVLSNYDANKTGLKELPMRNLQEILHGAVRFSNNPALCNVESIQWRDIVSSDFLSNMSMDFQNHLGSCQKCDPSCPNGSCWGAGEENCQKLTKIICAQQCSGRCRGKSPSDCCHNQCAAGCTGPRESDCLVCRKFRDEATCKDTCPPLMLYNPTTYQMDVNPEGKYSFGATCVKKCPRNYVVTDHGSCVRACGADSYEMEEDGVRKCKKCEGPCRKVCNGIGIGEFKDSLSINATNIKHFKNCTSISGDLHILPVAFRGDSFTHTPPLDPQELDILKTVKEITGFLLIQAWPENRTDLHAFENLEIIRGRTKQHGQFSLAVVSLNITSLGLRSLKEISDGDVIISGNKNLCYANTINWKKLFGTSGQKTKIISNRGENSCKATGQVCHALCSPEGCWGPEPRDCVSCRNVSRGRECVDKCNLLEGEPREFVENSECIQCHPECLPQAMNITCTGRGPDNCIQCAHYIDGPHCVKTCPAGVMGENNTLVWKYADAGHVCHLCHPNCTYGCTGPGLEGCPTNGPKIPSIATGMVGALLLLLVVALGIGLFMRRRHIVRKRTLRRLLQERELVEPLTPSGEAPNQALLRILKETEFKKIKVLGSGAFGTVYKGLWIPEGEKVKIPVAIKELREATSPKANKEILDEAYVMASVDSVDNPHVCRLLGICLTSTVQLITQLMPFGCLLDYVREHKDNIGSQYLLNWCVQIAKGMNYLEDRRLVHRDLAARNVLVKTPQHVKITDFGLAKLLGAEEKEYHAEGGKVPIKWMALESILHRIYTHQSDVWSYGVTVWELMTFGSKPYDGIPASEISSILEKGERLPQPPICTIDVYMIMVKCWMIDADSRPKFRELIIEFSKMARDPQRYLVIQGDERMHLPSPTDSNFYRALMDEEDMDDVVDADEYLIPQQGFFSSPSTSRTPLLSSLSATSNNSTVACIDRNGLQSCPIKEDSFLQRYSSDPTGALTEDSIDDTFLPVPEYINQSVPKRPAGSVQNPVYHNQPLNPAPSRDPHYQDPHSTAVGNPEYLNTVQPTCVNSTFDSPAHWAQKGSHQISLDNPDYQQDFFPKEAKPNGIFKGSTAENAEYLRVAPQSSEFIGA", "experiment": "Exon20-mutant-EGFR (D770_N771insSVD) TR-FRET kinase assay", "format": "biochemical", "conditions": "2 mM ATP, 15 min preincubation", "from_the_text": "Inhibitory activity of compounds of the present invention against an Epidermal Growth Factor Receptor (EGFR) with an insertion of the amino acids sequence SVD between D770 and N771 (SEQ ID No. 5) was quantified employing the TR-FRET based kinase activity assay as described in the following paragraphs.\nA recombinant fusion protein of N-terminal Glutathion-S-Transferase (GST) and a fragment of human EGFR variant (amino acids R669 to A1210 with insertion of the amino acids sequence SVD between D770 and N771 (SEQ ID No. 5) (“EGFR ins SVD”), expressed in Sf9 insect cells and purified via affinity chromatography using Glutathion Sepharose as described above, was used as a kinase. As substrate for the kinase reaction the biotinylated peptide biotin-Ahx-AEEEEYFELVAKKK (C-terminus in amide form) (SEQ ID No. 6) was used which can be purchased e.g. form the company Biosynthan GmbH (Berlin-Buch, Germany).\nFor the assay 50 nl of a 100-fold concentrated solution of the test compound in DMSO was pipetted into either a black low volume 384 well microtiter plate or a black 1536 well microtiter plate (both Greiner Bio-One, Frickenhausen, Germany), 2 μl of a solution of EGFR in aqueous assay buffer [50 mM Hepes pH 7.0, 10 mM MgCl2, 1 mM dithiothreitol, 0.5 mM EGTA, 0.3 mM activated sodium ortho-vanadate, 0.005% (w/v) bovine serum albumin, 0.005% (v/v) Tween-20] were added and the mixture was incubated for 15 min at 22° C. to allow pre binding of the test compounds to the enzyme before the start of the kinase reaction. […] The concentration of EGFR was adjusted depending of the activity of the enzyme lot and was chosen appropriate to have the assay in the linear range, typical concentration was 15 pg/μl. The reaction was stopped by the addition of 3 μl of a solution of HTRF detection reagents (83.3 nM streptavidine-XL665 [Cisbio Bioassays, Codolet, France] and 1.67 nM PT66-Tb-Cryptate, a terbium-cryptate labelled anti-phospho-tyrosine antibody from Cisbio Bioassays [instead of the PT66 Tb cryptate PT66 Eu Chelate from Perkin Elmer can also be used]) in an aqueous EDTA-solution (133.3 mM EDTA, 0.2% (w/v) bovine serum albumin in 50 mM HEPES pH 7.5).\nThe resulting mixture was incubated 1 h at 22° C. to allow the binding of the biotinylated phosphorylated peptide to the streptavidine-XL665 and the PT66-Tb-Cryptate. Subsequently, the amount of phosphorylated substrate was evaluated by measurement of the resonance energy transfer from the PT66-Tb-Cryptate to the streptavidine-XL665. Therefore, the fluorescence emissions at 620 nm and 665 nm after excitation at 337 nm were measured in a HTRF reader, e.g. a Pherastar (BMG Labtechnologies, Offenburg, Germany) or a Viewlux (Perkin-Elmer). The ratio of the emissions at 665 nm and at […] was taken as the measure for the amount of phosphorylated substrate. The data were normalised (enzyme reaction without inhibitor=0% inhibition, all other assay components but no enzyme=100% inhibition)."}, "BA/F3 (insSVD) cells": {"system": "BA/F3 (insSVD) cells", "experiment": "Ba/F3 cell survival assay (Cell Titer-Glo), EGFR-insSVD", "format": "cell-based", "conditions": "Mus musculus, BaF3, 48 h, without IL-3, with EGF", "experimental": "293T cells from ATCC were transfected with pBABEpuro expression constructs for WT EGFR or EGFR-insSVD, or EGFR-insSVD T790M, and pCL-Eco packaging vector using Fugene-6 transfection reagent from Promega. Plates were incubated at 37° C. for 48 h. Retrovirus was harvested by filtering the media supernatant through a 0.45 μm filter.\nBa/F3 cells purchased from DSMZ were grown in RPMI+10% FBS+10 ng/mL IL-3 and infected with filtered retroviral supernatant at a 1:2 dilution. Polybrene was added to a concentration of 8 μg/mL, plates were spun for 90 min, and incubated for 16 h at 37° C. 2 μg/mL puromycin was added to the infected cells 24 h after infection and cells were continually grown in the presence of puromycin and 10 ng/mL IL-3. Following stably expressing Ba/F3 cell lines were generated: Ba/F3-EGFR-WT, Ba/F3-EGFR-insSVD, Ba/F3-EGFR-insSVD T790M, (Ba/F3-vector-control).\nFor cell survival assays, Ba/F3 cells were grown to a density of 1-2 million cells per mL, spun down and resuspended in media without IL-3, and replated at a concentration of 200,000-500,000 cells per mL. The cells ectopically expressing WT EGFR, EGFR-insSVD, or EGFR-insSVD T790M were plated with 10 ng/mL Millipore Culture grade EGF. The cells ectopically expressing pBABEpuro empty vector were plated with 10 ng/mL IL-3.\n2 days later, cells were plated in 50 μL in a 384 well plate at a concentration of 4000 cells per well for cells assayed in the absence of IL-3 and 2000 cells per well for cells assayed in the presence of IL-3. 100 nL of compound was added to each well using a 100 nL pin head, and plates were incubated at 37° C. for 48 h.\nCell viability was measured by adding 20 μL of Cell Titer-Glo Luminescent Cell Viability Reagent diluted 1:3 in PBS. Plates were sealed with Perkin Elmer Top-Seal, inverted several times to mix, and immediately centrifuged at 1000 rpm for 2 min. Plates were incubated in low light conditions for 8-10 min and luminescence was measured."}, "[2]": {"target": "mutEGFR (D770_N771insNPG, T790)", "sequence (P00533 with tags, fused parts or gaps INS770NPG limits assumed)": "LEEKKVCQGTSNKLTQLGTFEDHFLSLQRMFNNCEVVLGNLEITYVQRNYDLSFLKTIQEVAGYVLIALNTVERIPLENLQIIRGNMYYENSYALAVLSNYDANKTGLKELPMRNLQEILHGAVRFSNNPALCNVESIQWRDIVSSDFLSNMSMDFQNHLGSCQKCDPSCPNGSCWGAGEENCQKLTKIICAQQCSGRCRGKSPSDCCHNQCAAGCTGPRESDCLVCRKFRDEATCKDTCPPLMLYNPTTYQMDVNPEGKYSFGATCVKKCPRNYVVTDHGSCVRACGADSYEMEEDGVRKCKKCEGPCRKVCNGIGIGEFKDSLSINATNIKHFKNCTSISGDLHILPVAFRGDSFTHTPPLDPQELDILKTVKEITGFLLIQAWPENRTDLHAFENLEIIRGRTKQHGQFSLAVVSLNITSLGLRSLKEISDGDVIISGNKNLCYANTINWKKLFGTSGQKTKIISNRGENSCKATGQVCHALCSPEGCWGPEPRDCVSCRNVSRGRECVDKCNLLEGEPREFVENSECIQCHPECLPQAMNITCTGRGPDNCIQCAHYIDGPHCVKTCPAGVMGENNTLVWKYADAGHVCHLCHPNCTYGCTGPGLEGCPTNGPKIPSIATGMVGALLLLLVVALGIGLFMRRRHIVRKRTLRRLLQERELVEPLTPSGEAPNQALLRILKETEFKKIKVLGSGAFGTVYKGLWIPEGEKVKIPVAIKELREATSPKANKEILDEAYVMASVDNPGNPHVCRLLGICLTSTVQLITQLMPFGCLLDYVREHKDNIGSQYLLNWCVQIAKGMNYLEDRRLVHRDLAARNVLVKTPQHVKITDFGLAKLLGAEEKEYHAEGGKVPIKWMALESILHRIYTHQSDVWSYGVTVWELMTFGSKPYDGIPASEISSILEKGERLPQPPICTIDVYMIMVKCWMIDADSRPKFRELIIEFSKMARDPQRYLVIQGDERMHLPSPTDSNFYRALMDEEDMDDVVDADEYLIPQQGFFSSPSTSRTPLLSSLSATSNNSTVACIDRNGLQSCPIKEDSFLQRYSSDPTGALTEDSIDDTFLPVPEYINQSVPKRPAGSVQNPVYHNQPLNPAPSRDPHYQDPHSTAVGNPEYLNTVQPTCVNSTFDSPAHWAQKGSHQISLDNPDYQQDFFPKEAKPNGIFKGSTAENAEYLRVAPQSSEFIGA", "experiment": "mutEGFR (D770_N771insNPG, T790) kinase assay", "format": "biochemical, human"}}, "data": [{"molecule": "C=CC(=O)N(C)CCOc1cnccc1-c1[nH]c2cccnc2c1-c1cc(CC)ccc1F", "note": "[Example 48, N-[2-({4-[3-(5-ethyl-2-fluorophenyl)-1H-pyrrolo[3,2-b]pyridin-2-yl]pyridin-3-yl}oxy)ethyl]-N-methylprop-2-enamide]", "values": [{"measurement": "IC50", "setting": "[1]", "result": 36.8, "unit": "nM"}, {"measurement": "IC50", "setting": "BA/F3 (insSVD) cells", "result": 962, "unit": "nM"}, {"measurement": "IC50", "setting": "[2]", "result": 109, "unit": "nM"}]}, {"molecule": "C=CC(=O)N(C)CCOc1cnccc1-c1[nH]c2cccnc2c1-c1cc(Cl)ccc1Cl", "note": "[Example 57, N-[2-({4-[3-(2,5-dichlorophenyl)-1H-pyrrolo[3,2-b]pyridin-2-yl]pyridin-3-yl}oxy)ethyl]-N-methylprop-2-enamide]", "values": [{"measurement": "IC50", "setting": "[1]", "result": 156, "unit": "nM"}, {"measurement": "IC50", "setting": "BA/F3 (insSVD) cells", "result": 4590, "unit": "nM"}, {"measurement": "IC50", "setting": "[2]", "result": 450, "unit": "nM"}]}, {"molecule": "C=CC(=O)N1CC=C[C@H]1COc1cnccc1-c1[nH]c2cccnc2c1-c1ccccc1", "note": "[Example 115, 1-[(2S)-2-({[4-(3-phenyl-1H-pyrrolo[3,2-b]pyridin-2-yl)pyridin-3-yl]oxy}methyl)-2,5-dihydro-1H-pyrrol-1-yl]prop-2-en-1-one]", "values": [{"measurement": "IC50", "setting": "[1]", "result": 0.281, "unit": "nM"}, {"measurement": "IC50", "setting": "BA/F3 (insSVD) cells", "result": 12.2, "unit": "nM"}, {"measurement": "IC50", "setting": "[2]", "result": 0.875, "unit": "nM"}]}, {"molecule": "C=CC(=O)N1CCC[C@H]1COc1cnccc1-c1[nH]c2cccnc2c1-c1ccc2ccoc2c1", "note": "[Example 82, 1-{(2S)-2-[({4-[3-(1-benzofuran-6-yl)-1H-pyrrolo[3,2-b]pyridin-2-yl]pyridin-3-yl}oxy)methyl]pyrrolidin-1-yl}prop-2-en-1-one]", "values": [{"measurement": "IC50", "setting": "[1]", "result": 0.267, "unit": "nM"}, {"measurement": "IC50", "setting": "BA/F3 (insSVD) cells", "result": 36.8, "unit": "nM"}, {"measurement": "IC50", "setting": "[2]", "result": 0.837, "unit": "nM"}]}, {"molecule": "C=CS(=O)(=O)N1CCC[C@H]1COc1cnccc1-c1[nH]c2cccnc2c1-c1ccc(F)c(OC(F)F)c1", "note": "[Example 105, 3-[3-(difluoromethoxy)-4-fluorophenyl]-2-(3-{[(2S)-1-(ethenesulfonyl)pyrrolidin-2-yl]methoxy}pyridin-4-yl)-1H-pyrrolo[3,2-b]pyridine]", "values": [{"measurement": "IC50", "setting": "[1]", "result": 0.207, "unit": "nM"}, {"measurement": "IC50", "setting": "BA/F3 (insSVD) cells", "result": 31.1, "unit": "nM"}, {"measurement": "IC50", "setting": "[2]", "result": 0.537, "unit": "nM"}]}, {"molecule": "C=CS(=O)(=O)N1CC[C@@H]1COc1cnccc1-c1[nH]c2cccnc2c1-c1ccccc1", "note": "(single isomer, unassigned) [Example 142]", "values": [{"measurement": "IC50", "setting": "[1]", "result": "< 0.0725", "unit": "nM"}, {"measurement": "IC50", "setting": "BA/F3 (insSVD) cells", "result": 16, "unit": "nM"}, {"measurement": "IC50", "setting": "[2]", "result": 0.262, "unit": "nM"}]}, {"molecule": "C=CC(=O)N(C)CCOc1cnccc1-c1[nH]c2cccnc2c1-c1cc(Cl)ccc1F", "note": "[Example 43, N-[2-({4-[3-(5-chloro-2-fluorophenyl)-1H-pyrrolo[3,2-b]pyridin-2-yl]pyridin-3-yl}oxy)ethyl]-N-methylprop-2-enamide]", "values": [{"measurement": "IC50", "setting": "[1]", "result": 11.7, "unit": "nM"}, {"measurement": "IC50", "setting": "BA/F3 (insSVD) cells", "result": 538, "unit": "nM"}, {"measurement": "IC50", "setting": "[2]", "result": 33.2, "unit": "nM"}]}, {"molecule": "C=CS(=O)(=O)N1CCC[C@H]1COc1cnccc1-c1[nH]c2cccnc2c1-c1ccc(F)c(OC(F)(F)F)c1", "note": "[Example 108, 2-(3-{[(2S)-1-(ethenesulfonyl)pyrrolidin-2-yl]methoxy}pyridin-4-yl)-3-[4-fluoro-3-(trifluoromethoxy)phenyl]-1H-pyrrolo[3,2-b]pyridine]", "values": [{"measurement": "IC50", "setting": "[1]", "result": 0.557, "unit": "nM"}, {"measurement": "IC50", "setting": "BA/F3 (insSVD) cells", "result": 70.4, "unit": "nM"}, {"measurement": "IC50", "setting": "[2]", "result": 2.41, "unit": "nM"}]}, {"molecule": "CN(C)C/C=C\\C(=O)N1CCC[C@H]1COc1cnccc1-c1[nH]c2cccnc2c1-c1ccccc1", "note": "[Example 98, (2Z)-4-(dimethylamino)-1-[(2S)-2-({[4-(3-phenyl-1H-pyrrolo[3,2-b]pyridin-2-yl)pyridin-3-yl]oxy}methyl)pyrrolidin-1-yl]but-2-en-1-one]", "values": [{"measurement": "IC50", "setting": "[1]", "result": 14.6, "unit": "nM"}, {"measurement": "IC50", "setting": "BA/F3 (insSVD) cells", "result": 747, "unit": "nM"}, {"measurement": "IC50", "setting": "[2]", "result": 59.1, "unit": "nM"}]}, {"molecule": "C=CC(=O)N1CCC[C@H]1COc1cnccc1-c1[nH]c2cccnc2c1-c1ccc(F)c(OC(F)F)c1", "note": "[Example 103, 1-[(2S)-2-{[(4-{3-[3-(difluoromethoxy)-4-fluorophenyl]-1H-pyrrolo[3,2-b]pyridin-2-yl}pyridin-3-yl)oxy]methyl}pyrrolidin-1-yl]prop-2-en-1-one]", "values": [{"measurement": "IC50", "setting": "[1]", "result": 3.56, "unit": "nM"}, {"measurement": "IC50", "setting": "BA/F3 (insSVD) cells", "result": 650, "unit": "nM"}, {"measurement": "IC50", "setting": "[2]", "result": 16.9, "unit": "nM"}]}, {"molecule": "C=CC(=O)N1CCCC[C@H]1COc1cnccc1-c1[nH]c2cccnc2c1-c1ccccc1", "note": "[Example 130, 1-[(2S)-2-({[4-(3-phenyl-1H-pyrrolo[3,2-b]pyridin-2-yl)pyridin-3-yl]oxy}methyl)piperidin-1-yl]prop-2-en-1-one]", "values": [{"measurement": "IC50", "setting": "[1]", "result": 337, "unit": "nM"}, {"measurement": "IC50", "setting": "BA/F3 (insSVD) cells", "result": 1620, "unit": "nM"}]}]}
